Laboratory results reported in paper PMC5924986, “Cellular and Biophysical Pipeline for the Screening of Peroxisome Proliferator-Activated Receptor Beta/Delta Agonists: Avoiding False Positives” (PPAR Research, 2018).
Several values for one entry are separate records, joined by “and”; a condition that tells them apart may be missing. Equal values may be shown once. Entries after “also recorded” stand apart in the source; their conditions may differ. Read-outs that look alike come from different tables or passages of the source.

Key:
[1] = test system: PPARß/δ; conditions: read-out: EC50 found in the literature, cited from earlier work
[2] = test system: 293T cells; test: Cytotoxicity: MTT assay and Renilla reporter expression; format: cell-based; conditions: 1 μM, 1% DMSO as vehicle, compared with 0.1% or 1% DMSO
Description: We performed vector normalization with the raw luminescence data to control for differences in transfection efficiency between samples. For vector normalization we calculate luciferase signal/Renilla signal. The assay performance was assessed by plate statistics (signal-to-background ratio, Z′-factor, coefficient of variation) and apparent cytotoxicity was a measure of Renilla luciferase parameters. For Z′-factor calculation, we consider, after vector normalization, the positive controls (GW0742) as signal, and negative controls (DMSO) as background. For cytotoxicity, wells with expression of Renilla reporter five standard deviations (5 × SD) below the mean value of the controls treatment were considered cytotoxic and consequently were disregarded. We considered as hit candidates compounds/extracts with luminescence firefly/Renilla ratio 7 times above the standard deviation of negative controls (DMSO) from the same plate. […]
Additionally, we related the 3-(4,5-dimethyl-2-thia-zoyl)-2,5-diphenyl-2H-tetrazolium bromide (MTT) results with Renilla reporter expression to assess when a test compound/extract might be toxic to the cells, only based on Renilla reporter expression. […] The absorbance was measured at 562 nm using an EnSpire® Multimode Plate Reader (Perkin Elmer). […] Data were analyzed by 2-way ANOVA followed by Sidak's multiple comparison test in GraphPad Prism software. […]

[3] = target: T1, hPPARß/δ LBD (Homo sapiens, UniProt Q03181); test: Qualitative thermal shift assay (TSA); format: binding; conditions: commercial agonists at 30 μM, 10 μM PPARß/δ, vs apo-PPARß/δ
T1 construct: cDNA (amino acids 171–441) inserted into pET28a vector; His-tag; made in house; host or cells: Escherichia coli BL21(DE3)
T1 sequence (Q03181 171-441): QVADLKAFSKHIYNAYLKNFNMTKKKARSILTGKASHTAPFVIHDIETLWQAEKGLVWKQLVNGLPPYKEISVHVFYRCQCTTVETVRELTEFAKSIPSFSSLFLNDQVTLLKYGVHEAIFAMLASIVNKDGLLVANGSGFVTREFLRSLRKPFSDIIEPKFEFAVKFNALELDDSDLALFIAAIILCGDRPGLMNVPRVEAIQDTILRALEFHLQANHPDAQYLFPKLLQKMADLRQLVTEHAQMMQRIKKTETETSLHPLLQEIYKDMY

[4] = target: T2, PPARß/δ (Homo sapiens, UniProt Q03181); test: PPARß/δ transactivation assay (Gal4-DBD/PPARß/δ-LBD dual luciferase reporter-gene assay in 293T cells); format: cell-based; conditions: dose-response curves 10^−11–10^−6 M
T2 construct: expressed in transfected cells; host or cells: 293T cells (ATCC CRL-3216), transient transfection
T2 sequence (Q03181 211-439 limits assumed): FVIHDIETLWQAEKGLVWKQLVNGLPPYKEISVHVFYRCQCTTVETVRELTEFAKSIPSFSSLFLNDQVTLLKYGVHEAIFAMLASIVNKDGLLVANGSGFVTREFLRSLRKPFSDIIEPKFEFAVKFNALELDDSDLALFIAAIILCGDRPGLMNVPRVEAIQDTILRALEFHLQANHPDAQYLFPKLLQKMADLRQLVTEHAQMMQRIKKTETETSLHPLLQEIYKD

[5] = target: T1, hPPARß/δ LBD; test: ANS fluorescence quenching; format: binding; conditions: 2 μM hPPARß/δ LBD, 20 μM ANS; for ANS fluorescence quenching / ANS probe displacement (qualitative): compounds 0.3–50 μM, extracts 0.005–1 mg/mL

Cc1cc(SCc2sc(-c3ccc(C(F)(F)F)cc3)nc2C)ccc1OCC(=O)O [GW501516]
EC50 ([1]; ref [7]): 1.8 nM

Cc1cc(SCc2sc(-c3ccc(C(F)(F)F)c(F)c3)nc2C)ccc1OCC(=O)O [GW0742]
cytotoxicity (MTT / Renilla reporter expression) [2]: no cytotoxicity

CCCc1c(OCCCOc2ccc(OCC(=O)O)cc2)ccc(C(C)=O)c1O [L-165,041]
EC50 ([1]; ref [25]): 125 nM | Tm variation [3]: 7.3 ± 0.7 °C and 7.3 °C | EC50 [4]: 26.4 nM | ANS fluorescence quenching / ANS probe displacement (qualitative) [5]: showed quenching in the ANS fluorescence | Kd ([5]; read-out: apparent dissociation constant (Kdapp)): 1090 ± 80 nM

CC(C)(Oc1ccc(CCNC(=O)c2ccc(Cl)cc2)cc1)C(=O)O [Bezafibrate]
Tm variation [3]: 2.9 ± 0.1 °C and 2.9 °C | ANS fluorescence quenching / ANS probe displacement (qualitative) [5]: did not dislocate the ANS probe; also recorded: did not show a fluorescence quenching
